Legend:
Assay type in all cases: cell-based, mouse
Raw 264.7 cells [1] = assay: Inhibition of p-CREB with KG501, IL-1ra ELISA in Raw 264.7 cells; conditions: KG501 2, 5, 10 μM pretreatment 45 min, then hUMSCs-CM with LPS 200 ng/ml
Experimental: Raw 264.7 cells (2×10^5) were seeded onto the plate, and incubated for 24 hrs. The cells were pretreated with a serum-free medium containing KG501 (2 μM, 5 μM, and 10 μM, Sigma-Aldrich, MO) for 45 min. The supernatant was then removed from the dish, and the cells were treated with hUMSCs-CM in the presence of LPS (200 ng/ml). The supernatant was used for IL-1ra ELISA analysis. Independent experiments were triplicated on different days.
(§1) IL-1β and IL-1ra levels were measured in supernatants of Raw 264.7 cells using commercially available ELISA kits (IL-1β Quantikine ELISA and IL-1 ra Quantikine ELISA kits, R&D Systems, MN).

Raw 264.7 cells [2] = assay: IL-1β and IL-1ra ELISA in supernatants of Raw 264.7 cells; conditions: LPS alone
Experimental: A mouse macrophage cell line (Raw 264.7 cell, ATCC, VA) was cultured according to the manufacturer's instructions. The raw 264.7 cells were treated with either LPS (100 ng/ml, Sigma-Aldrich, MO) or LPS together with hUMSCs-CM for 24 hrs, and the supernatants were isolated from each treated group.
as §1

Raw 264.7 cells [3] = assay: Knockdown of CREB by siRNA in Raw 264.7 cells
Experimental: After Raw 264.7 cells (2×10^5) were plated in 6-well plates, transfection with 100 nM of CREB siRNA (siCREB) and control (siCtr) was performed for 48 hrs using Lipofectamine 3000 reagent (Invitrogen, MA) according to the manufacturer's instructions. The siCREB (sense: 5′-[…]-3″, antisense: 5′-[…]-3″) and siCtr (sense: 5-ACGUGACACGUUCGGAGAA-3′, antisense: 5′-UUCUCCGAACGUGUCACGU-3″) were purchased from Genolution Pharmaceuticals, Inc. After transfection, the RNA and proteins were isolated and used for PCR and western blotting, respectively.

With `O=C(Nc1ccc(Cl)cc1)c1cc2ccccc2cc1OP(=O)(O)O` [KG501] the “increase of IL-1ra expression by hUMSCs-CM treatment” value (Raw 264.7 cells [1]) was “inhibited in a CREB inhibitor dose-dependent manner”.

With lipopolysaccharide [LPS] the “IL-1ra level in Raw 264.7 cells” value (Raw 264.7 cells [2]) was “strongly elevated” and the “IL-1β level in Raw 264.7 cells” value (Raw 264.7 cells [2]) was “strongly elevated”.

“siCREB: CREB siRNA, sense 5′-CCACAAAUCAGAUUAAUUUUU-3″, antisense 5′-AAAUUAAUCUGAUUUGUGGUU-3″ (chemistry not given here)” was tested, and the “enhanced expression of IL1RN induced by hUMSCs-CM” value (Raw 264.7 cells [3]; LPS-stimulated Raw 264.7 cells, knockdown of CREB) was “reduced” and the “expression of IL-1ra protein in Raw 264.7 cells” value (Raw 264.7 cells [3]; transfection with 100 nM siCREB, 48 hrs) was “reduced”.

— patent US20200129592A1, “COMPOSITION FOR TREATING STROKE AND METHOD FOR SCREENING THE SAME” (CHA University Industry-Academic Cooperation Foundation, priority 2018, published 2020)
